Experimental data reported in PubChem BioAssay AID192 (DTP/NCI, 2004).
Values joined by “and” are separate entries in the source; they are usually repeats but may differ in a detail not shown here. Equal entries are not always repeated. Toxic doses and inconclusive results are not listed. Rule for the calls: active = survival T/C of 150% or more; inactive = T/C below 125% in these data. Numbered stars: 1 amine (or outer) side, 2 acyl side, 3 side chain; on linkers, the order of the positions; unused ones are H or OH. Peptide text beside a SMILES is read from it. γGlu = O=C(O)[CH](CCC(=O)[*:2])N[*:1]

System: BDF1 mice, B16 melanoma ip, median survival T/C
Experiment: NCI In Vivo Anticancer Drug Screen. Data for tumor model B16 Melanoma (intraperitoneal) in B6D2F1 (BDF1) mice
Settings: endpoint: median survival time, higher = longer survival
Procedure, shortened: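 Each result divides a survival or tumor-size measurement in the compound-treated group by the same measurement in the vehicle group.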

[1] = dose: 6.25 mg/kg/injection, schedule: Q01DX009 (ip), vehicle: Klucel (hydroxypropylcellulose) (HPC)
[2] = dose: 12.5 mg/kg/injection, schedule: Q01DX009 (ip), vehicle: Klucel (hydroxypropylcellulose) (HPC)
[3] = dose: 25.0 mg/kg/injection, schedule: Q01DX009 (ip), vehicle: Klucel (hydroxypropylcellulose) (HPC)
[4] = dose: 50.0 mg/kg/injection, schedule: Q01DX009 (ip), vehicle: Klucel (hydroxypropylcellulose) (HPC)
[5] = dose: 100.0 mg/kg/injection, schedule: Q01DX009 (ip), vehicle: Klucel (hydroxypropylcellulose) (HPC)
[6] = dose: 200.0 mg/kg/injection, schedule: Q01DX009 (ip), vehicle: Klucel (hydroxypropylcellulose) (HPC)
[7] = dose: 400.0 mg/kg/injection, schedule: Q01DX009 (ip), vehicle: Klucel (hydroxypropylcellulose) (HPC)
[8] = dose: 50.0 mg/kg/injection, schedule: Q01DX009 (ip), vehicle: saline with Tween-80
[9] = dose: 100.0 mg/kg/injection, schedule: Q01DX009 (ip), vehicle: saline with Tween-80
[10] = dose: 200.0 mg/kg/injection, schedule: Q01DX009 (ip), vehicle: saline with Tween-80
[11] = dose: 25.0 mg/kg/injection, schedule: Q01DX009 (ip), vehicle: saline with Tween-80
[12] = dose: 50.0 mg/kg/injection, schedule: Q01DX009 (ip), vehicle: saline sonified
[13] = dose: 100.0 mg/kg/injection, schedule: Q01DX009 (ip), vehicle: saline sonified
[14] = dose: 400.0 mg/kg/injection, schedule: Q01DX009 (ip), vehicle: saline with Tween-80

Measured: T/C

CC(CCc1ccccc1)NC(C)C(O)c1ccc(O)cc1 (centres undefined)
inactive: [1] 93 % of control | [2] 105 % of control | [3] 94 % of control | [4] 105 % of control | [5] 115 % of control

O=C(/C=C/C(=O)Oc1c(Cl)cc(Cl)cc1Cl)Oc1c(Cl)cc(Cl)cc1Cl
inactive: dose: 100.0 mg/kg/injection, schedule: Q04DX003 (ip), vehicle: Klucel (hydroxypropylcellulose) (HPC) 95 % of control | dose: 200.0 mg/kg/injection, schedule: Q04DX003 (ip), vehicle: Klucel (hydroxypropylcellulose) (HPC) 92 % of control | dose: 400.0 mg/kg/injection, schedule: Q04DX003 (ip), vehicle: Klucel (hydroxypropylcellulose) (HPC) 95 % of control

CC1CC(NC(=S)S)CC(C)(C)C1 (centres undefined)
inactive: dose: 0.25 mg/kg/injection, schedule: Q01DX009 (ip), vehicle: Klucel (hydroxypropylcellulose) (HPC) 96 % of control | dose: 0.5 mg/kg/injection, schedule: Q01DX009 (ip), vehicle: Klucel (hydroxypropylcellulose) (HPC) 96 % of control | dose: 1.0 mg/kg/injection, schedule: Q01DX009 (ip), vehicle: Klucel (hydroxypropylcellulose) (HPC) 100 % of control

COc1cc2c(cc1OC)C(OC)N(C)c1c-2ccc2cc(OC)c(OC)cc12 (centres undefined)
inactive: dose: 37.5 mg/kg/injection, schedule: Q01DX009 (ip), vehicle: Klucel (hydroxypropylcellulose) (HPC) 98 % of control | dose: 75.0 mg/kg/injection, schedule: Q01DX009 (ip), vehicle: Klucel (hydroxypropylcellulose) (HPC) 95 % of control | dose: 150.0 mg/kg/injection, schedule: Q01DX009 (ip), vehicle: Klucel (hydroxypropylcellulose) (HPC) 100 % of control | dose: 300.0 mg/kg/injection, schedule: Q01DX009 (ip), vehicle: Klucel (hydroxypropylcellulose) (HPC) 100 % of control

O=C1NC(c2ccc3ccccc3c2)Nc2ccccc21 (centres undefined)
inactive: [5] 96 % of control | [6] 103 % of control | [7] 90 % of control

CCC(=O)NC1=C(N2CC2C)C(=O)C(NC(=O)CC)=C(N2CC2C)C1=O (centres undefined)
inactive: dose: 0.39 mg/kg/injection, schedule: Q01DX009 (ip), vehicle: Klucel (hydroxypropylcellulose) (HPC) 119 % of control | dose: 0.78 mg/kg/injection, schedule: Q01DX009 (ip), vehicle: Klucel (hydroxypropylcellulose) (HPC) 95 % of control | dose: 1.56 mg/kg/injection, schedule: Q01DX009 (ip), vehicle: Klucel (hydroxypropylcellulose) (HPC) 111 % of control | dose: 3.12 mg/kg/injection, schedule: Q01DX009 (ip), vehicle: Klucel (hydroxypropylcellulose) (HPC) 102 % of control | [1] 123 % of control

NC(=O)OCCCc1ccccc1
inactive: [2] 100 % of control | [3] 94 % of control | [4] 100 % of control | [5] 107 % of control

Cc1cc(=O)c2c(=O)[nH][nH]c2[nH]1
inactive: [8] 100 % of control | [9] 95 % of control | [10] 88 % of control

Cc1cccc2cc3c(ccc4ccccc43)c[n+]12
inactive: dose: 1.0 mg/kg/injection, schedule: Q01DX009 (ip), vehicle: saline sonified 105 % of control | dose: 2.0 mg/kg/injection, schedule: Q01DX009 (ip), vehicle: saline sonified 107 % of control | dose: 4.0 mg/kg/injection, schedule: Q01DX009 (ip), vehicle: saline sonified 102 % of control

N=C(N)c1ccc(/C=C/c2ccc(C(=N)N)cc2)cc1
inactive: dose: 16.0 mg/kg/injection, schedule: Q01DX009 (ip), vehicle: saline with Tween-80 98 % of control | dose: 32.0 mg/kg/injection, schedule: Q01DX009 (ip), vehicle: saline with Tween-80 93 % of control

NC(CCC(=O)NC(CCC(=O)O)C(=O)NC(CCC(=O)O)C(=O)O)C(=O)O (stereo not drawn) (γGlu-Glu-Glu-OH; configuration not given here)
inactive: dose: 50.0 mg/kg/injection, schedule: Q01DX009 (ip), vehicle: saline 92 % of control | dose: 100.0 mg/kg/injection, schedule: Q01DX009 (ip), vehicle: saline 96 % of control | dose: 200.0 mg/kg/injection, schedule: Q01DX009 (ip), vehicle: saline 89 % of control

CC1(C)N=C(N)N=C(N)N1c1cc(Cl)c(Cl)cc1Cl
inactive: [2] 94 % of control | [3] 99 % of control

NC(CS/C(Cl)=C/Cl)C(=O)O (centres undefined)
inactive: dose: 12.0 mg/kg/injection, schedule: Q01DX009 (ip), vehicle: other 102 % of control | dose: 18.0 mg/kg/injection, schedule: Q01DX009 (ip), vehicle: other 90 % of control | dose: 27.0 mg/kg/injection, schedule: Q01DX009 (ip), vehicle: other 90 % of control

CCOC(=O)C(C)Oc1ccc(Cl)cc1 (centres undefined)
inactive: dose: 50.0 mg/kg/injection, schedule: Q01DX009 (ip), vehicle: other 111 % of control | dose: 100.0 mg/kg/injection, schedule: Q01DX009 (ip), vehicle: other 104 % of control | dose: 200.0 mg/kg/injection, schedule: Q01DX009 (ip), vehicle: other 106 % of control | dose: 400.0 mg/kg/injection, schedule: Q01DX009 (ip), vehicle: other 102 % of control

NC(=S)Nc1cccc2ccccc12
inactive: dose: 6.25 mg/kg/injection, schedule: Q01DX009 (ip), vehicle: saline with Tween-80 99 % of control | dose: 12.5 mg/kg/injection, schedule: Q01DX009 (ip), vehicle: saline with Tween-80 95 % of control | [11] 97 % of control

COc1ccc(OC)c(/C=C/c2ccnc3ccccc23)c1
inactive: [12] 113 % of control | [13] 107 % of control | dose: 200.0 mg/kg/injection, schedule: Q01DX009 (ip), vehicle: saline sonified 113 % of control

CC1(C)SC2C(NC(=O)C(N)c3ccccc3)C(=O)N2C1C(=O)O (centres undefined)
inactive: [9] 100 % of control | [10] 95 % of control | [14] 90 % of control

CCCCCCC(=O)CC(SCC)c1ccccc1Cl (centres undefined)
inactive: [11] 107 % of control | [8] 107 % of control | [9] 107 % of control | [10] 100 % of control | [14] 91 % of control

ClCCN=Cc1ccc(Cl)cc1
inactive: [9] 98 % of control | [10] 95 % of control | [14] 93 % of control

COc1cc2c(cc1O)C(=O)CCCC2
inactive: [9] 107 % of control | [10] 101 % of control | [14] 89 % of control and 101 % of control

CN(C)CCCNc1cc(O)c2c(c1O)C(=O)c1ccccc1C2=O
inactive: dose: 50.0 mg/kg/injection, schedule: Q01DX009 (ip), vehicle: water 116 % of control | dose: 100.0 mg/kg/injection, schedule: Q01DX009 (ip), vehicle: water 107 % of control

O=[N+]([O-])c1ccc(Oc2ccc(Cl)cc2)cc1
inactive: [5] 93 % of control | [6] 93 % of control | [7] 100 % of control

CCCCCCCCCCCCNC(=O)CCl
inactive: [5] 104 % of control | [6] 102 % of control | [7] 100 % of control

O=c1cnn(C2OC(CO)C(O)C2O)c(=S)[nH]1 (centres undefined)
inactive: dose: 100.0 mg/kg/injection, schedule: Q04DX003 (ip), vehicle: saline with Tween-80 93 % of control | dose: 200.0 mg/kg/injection, schedule: Q04DX003 (ip), vehicle: saline with Tween-80 95 % of control | dose: 400.0 mg/kg/injection, schedule: Q04DX003 (ip), vehicle: saline with Tween-80 88 % of control

Cc1ccc([N+](=O)[O-])cc1NC(=O)Oc1ccc(Cl)cc1Cl
inactive: [11] 93 % of control | [8] 90 % of control

CCCCNC(C)(C)COC(=O)/C=C/c1ccc(OCCCC)cc1
inactive: dose: 12.5 mg/kg/injection, schedule: Q01DX009 (ip), vehicle: saline sonified 97 % of control | dose: 25.0 mg/kg/injection, schedule: Q01DX009 (ip), vehicle: saline sonified 97 % of control | [12] 104 % of control | [13] 93 % of control
